Assay results as given in ChEMBL document CHEMBL1154739, “Synthesis and AChE inhibitory activity of new chiral tetrahydroacridine analogues from terpenic cyclanones” (Eur J Med Chem, 2010).

Target: T1, Acetylcholinesterase (Rattus norvegicus, UniProt P37136)
T1 sequence (P37136 whole entry): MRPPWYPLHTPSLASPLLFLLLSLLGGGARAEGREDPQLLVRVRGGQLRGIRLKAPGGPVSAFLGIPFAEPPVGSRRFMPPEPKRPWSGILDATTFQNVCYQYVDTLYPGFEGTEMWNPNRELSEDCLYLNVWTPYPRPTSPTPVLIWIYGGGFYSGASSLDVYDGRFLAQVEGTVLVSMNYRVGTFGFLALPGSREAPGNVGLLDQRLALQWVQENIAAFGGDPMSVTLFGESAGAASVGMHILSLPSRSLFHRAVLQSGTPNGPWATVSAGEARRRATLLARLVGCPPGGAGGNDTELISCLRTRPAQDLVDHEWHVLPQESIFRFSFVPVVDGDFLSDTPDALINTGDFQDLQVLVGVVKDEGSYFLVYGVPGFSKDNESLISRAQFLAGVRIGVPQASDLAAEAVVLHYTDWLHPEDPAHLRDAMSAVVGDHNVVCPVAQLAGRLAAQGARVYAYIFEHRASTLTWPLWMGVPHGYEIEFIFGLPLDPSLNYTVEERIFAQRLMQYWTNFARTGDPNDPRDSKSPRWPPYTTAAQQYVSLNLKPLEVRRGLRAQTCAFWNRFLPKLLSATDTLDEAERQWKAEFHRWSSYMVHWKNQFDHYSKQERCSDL
Description: Inhibition of AChE from rat cortex by Ellman assay

| SMILES | IC50 [µM] |
| --- | --- |
| C[C@H]1CC(=O)C(C)(C)c2nc3ccccc3c(N)c2C1 | 0.288 |
| C[C@H]1CC[C@H](C(C)(C)C)c2nc3ccccc3c(N)c21 | 1.35 |
| C[C@H]1Cc2nc3ccccc3c(N)c2C1 | 0.061 |
| CC(C)[C@H]1CCc2c(nc3ccccc3c2N)C1 | 0.816 |
| CC1(C)[C@H]2Cc3c(nc4ccccc4c3N)[C@@H]1C2 | 1.93 |
| CC(C)[C@@H]1Cc2nc3ccccc3c(N)c2C1 | 2.45 |
| C[C@@H]1c2c(nc3ccccc3c2N)[C@H]2C[C@@H]1C2(C)C | 2.62 |
| CC(C)[C@H]1CC[C@H](C(C)C)c2c1nc1ccccc1c2N | 7.22 |
| C[C@@H]1CCc2c(nc3ccccc3c2N)C1 | 1.38 |
